The record followed here is patent US9034825B2, “Treatment of myocardial injury with humanin analogs” (Albert Einstein College of Medicine of Yeshiva University, priority 2007, dated 2015).

Where “and” joins values, the source holds several entries; their conditions need not be identical. Identical values can stand only once.

In data set [1] the test system is Glc-6-Pase mRNA in the liver. Briefly: Hepatic Glc-6-Pase mRNA by qRT-PCR at end of clamp after ICV infusion. As to conditions: ICV infusion for 6 h. The class given is in vivo, rat. The method, then:
(§1) Total RNA was extracted following Clontech's protocol. First-stranded cDNA was synthesized from 1 μg of total RNA using Superscript III (Gibco, Gaithersburg, Md.). Hepatic glucose-6-phosphatase (Glc-6-Pase) and phosphoenolpyruvate carboxykinase (PEPCK) mRNA abundance were assessed by qRT-PCR as described previously (Buettner et al., 2005). Quantification of these peptides and their copy number was normalized for GAPDH and 18S to correct for loading irregularities. The data presented are those normalized by GAPDH.
In general terms: Quantitative PCR measures a nucleic acid by following its amplification.

For another data set, the system named is 3T3L1 adipocytes. Briefly: Glucose transport in 3T3L1 adipocytes. The class given is cell-based. As to conditions: 3T3L1 cells, basal and insulin-stimulated. An excerpt:
Using the 3T3L1 adipocyte model, the effects of humanin on insulin action and glucose transport were investigated.

For data set [2], the system named is Sprague-Dawley rats. Briefly: ICV infusion with pancreatic insulin clamp or hyperinsulinemic clamp (Example 5). The class given is in vivo, rat. As to conditions: for peripheral glucose infusion rate: ICV, hyperinsulinemic clamp. The method, then: Studies were conducted with 92 three-month-old male Sprague-Dawley rats (Charles River Laboratories). Rats were housed in individual cages and subjected to a standard light-dark cycle. Rats were prepared for clamps as described in FIG. 15A. Three weeks before the in vivo studies catheters were implanted in the third cerebral ventricle (Muzumdar et al. 2003). One week before clamp experiments, catheters were placed in the right internal jugular vein and left carotid artery (Liu et al. 1998).
A primed-continuous ICV infusion of HN, F6A-HN (total dose of 20 μg), STAT-3 inhibitor (75 pmol) (Buettner et al. 2006), or aCSF was initiated at t=0 and maintained for the remainder of the experiment (FIG. 15A). Pancreatic insulin-clamp studies or euglycemic-hyperinsulinemic clamps were performed in conscious, unrestrained, catheterized mice for last 120 minutes as described previously (Bahar et al. 2006, Muzumdar et al. 2006). In the intra-venous group, HN, F6A, Colivelin, and HNGF6A were infused intravenously and hyperinsulinemic clamps were performed as described previously (Loeb et al. 2005). Estimation of glucose, glucose fluxes, insulin, FFA were done as described previously (Loeb et al. 2005). HN measurements were performed by an in-house, ELISA utilizing affinity purified humanin antibodies that recognize both human and rat humanin and has a limit of detection of 0.1 ng/ml (Hwang, and Cohen personal communication).

In the next data set the test system is PEPCK mRNA in the liver. Briefly: Hepatic PEPCK mRNA by qRT-PCR at end of clamp after ICV infusion. The class given is in vivo, rat. As to conditions: ICV infusion for 6 h. The method, then: as §1
For another data set, the system named is primary hepatocytes. Briefly: Glucose production of primary isolated hepatocytes. As to conditions: rat hepatocytes explant cultures. The class given is cell-based. The method, then:
Single-cell suspensions of hepatocytes were obtained from perfusions of Sprague-Dawley rats using the procedure of Berry and Friend (1969) and the perfusion mixture of Leffert et al (1979). Hepatocyte glucose production was estimated after a 24 hr treatment with HN, F6A and saline as described before (Berg et al. 2001). In a separate set of experiment, hepatocytes were lysed, and protein extracted in RIPA lysis buffer at 30, 60 and 360 min post treatment with FIN, F6A and saline. The cell lysates were then subject to western blotting for Phospho-STAT3 (Tyr705), total-STAT3, Phospho-AKT (Ser473), and total-AKT expression (antibodies purchased from Cell Signaling, #9131, #9132, #9271, #9272).

Data set [3] relates to Sprague-Dawley rats. The experiment in a line: Peripheral IGFBP-3 infusion during hyperinsulinemic clamp. Format: in vivo, rat. The method, then:
To study the acute effects of an infusion of IGFBP-3, two groups of awake, unstressed, chronically catheterized Sprague-Dawley rats (˜300 g) were studied for 300 min (n=6 in each group) under hyperinsulinemic clamp (as previously described). From 120 min the rats received a primed continuous infusion of IGFBP-3 (0.06 mg/kg/hr) or saline (control) for an additional 3 h.
Plasma samples for determination of [^3H]glucose and [^3H] water specific activities were obtained at 10-min intervals during the basal and clamp periods. Steady state conditions for the plasma glucose concentration and specific activity were achieved within 90 min in all the studies. Plasma samples for determination of plasma IGF-1 (rat and human), IGFBP-3 (human IGFBP-3), GH, insulin, leptin, and FFA concentrations were collected at 30-min intervals throughout the study. All determinations were also performed on portal vein blood obtained at the end of the experiments. The total amount of blood drawn during the entire study for various assays is ˜3 cc. After separation of plasma (subsequently used for analysis), the red blood cells were reconstituted in saline and infused back into the animal.
Plasma glucose (sample volume 10 μl) was measured by the glucose oxidase method (Glucose Analyzer II, Beckman Instruments, Palo Alto, Calif.). Plasma [^3H]glucose radioactivity was measured in duplicates in the supernatants of Ba(OH)2 and ZnSO4 precipitates of plasma samples (20 μl) after evaporation to dryness to eliminate tritiated water. […] Plasma insulin (10 μl) was measured by RIA using rat insulin standard for basal studies and human insulin standard for insulin clamp studies. […] Plasma non-esterified fatty acid concentrations (5 μl) were determined by an enzymatic method with an automated kit according to the manufacturer's specification (Waco Pure Chemical Industries, Osaka, Japan). Rat IGF-1 (50 μl) was measured with a rIGF-1 ELISA kit (DSL, Webster, Tex.). Human IGF-1 (50 μl) was measured with an in-house kit developed in UCLA using a double monoclonal antibody ELISA with sensitivity of 0.1 ng/ml and an intra-assay and inter-assay coefficient of variations which are <6% and <8%, respectively, in the range from 1 to 6 ng/ml. Human IGFBP-3 (30 μl) was measured with an ELISA kit (DSL, Webster, Tex.). This kit reads both IGFBP-3 and NLS IGFBP-3. […] Serum levels of rat growth hormone were determined using an enzyme immunoassay (EIA) kit (ALPCO, Windham, N.H.) according to the manufacturer's instructions. […]
Under steady-state conditions for plasma glucose concentrations, the rate of glucose disappearance (Rd) equals the rate of glucose appearance (Ra). The latter was calculated as the ratio of the rate of infusion of [3-^3H]glucose (dpm/min) and the steady-state plasma [^3H]glucose specific activity (dpm/mg). […]

Where [4] appears, read: 0.06 mg/kg/hr IV, hyperinsulinemic clamp.

In the case of `CC[C@H](C)[C@H](NC(=O)[C@H](CCC(=O)O)NC(=O)[C@H](CO)NC(=O)[C@@H](NC(=O)[C@H](CC(C)C)NC(=O)[C@H](CC(C)C)NC(=O)[C@H](CC(C)C)NC(=O)[C@H](CC(C)C)NC(=O)[C@H](CS)NC(=O)[C@H](CO)NC(=O)[C@H](Cc1ccccc1)NC(=O)CNC(=O)[C@H](CCCNC(=N)N)NC(=O)[C@@H]1CCCN1C(=O)[C@H](C)NC(=O)[C@@H](N)CCSC)[C@@H](C)O)C(=O)N[C@@H](CC(=O)O)C(=O)N[C@@H](CC(C)C)C(=O)N1CCC[C@H]1C(=O)N[C@H](C(=O)N[C@@H](CCCCN)C(=O)N[C@@H](CCCNC(=N)N)C(=O)N[C@@H](CCCNC(=N)N)C(=O)N[C@@H](C)C(=O)O)C(C)C` [Humanin, maprgfscll lltseidlpv krra], the “expression of G-6Pase in the liver, ratio to GAPDH” value in data set [1] (end of clamp (Example 2), listed as HN) is 0.87 ±0.37 and 0.89 ±0.28. Also, the glucose transport entry in the data set with 3T3L1 adipocytes was “significantly enhanced basal as well as insulin-stimulated glucose transport”. Also, the hepatic glucose output result with Sprague-Dawley rats [2] (ICV HN 0.1 μg/kg/min, basal and high insulin clamp) is on record as “significant decrease in hepatic glucose output”. In the data set on Sprague-Dawley rats [2] (ICV infusion), the “serum concentrations of HN during ICV infusion” value is reported as “undetectable”. Besides, the “peripheral glucose infusion rate” value with Sprague-Dawley rats [2] was “increased”. The “PEPCK mRNA in the liver, ratio to GAPDH” value in the data set on PEPCK mRNA in the liver (end of clamp (Example 2)) is recorded as 12.4 ±2.7. Further, the “glucose production rates with and without HN” value in the data set with primary hepatocytes was “not different”.

In the case of “IGFBP-3: non glycosylated hIGFBP-3 (IGF binding protein-3), provided by Celtrix”, the “expression of G-6Pase in the liver, ratio to GAPDH” value in data set [1] (end of clamp (Example 1)) is on record as “no changes”. Besides, the glucose transport entry with 3T3L1 adipocytes is listed as “inhibited insulin-stimulated glucose transport”. Further, the “human IGFBP-3 levels during the IGFBP-3 infusion” value in the data set on Sprague-Dawley rats [3] (0.06 mg/kg/hr IV for 3 h) worked out at 1960 ± 360 ng/mL. In addition, in the data set with Sprague-Dawley rats [3] (setting [4]), the “higher HGP compared to controls” value stood at 30% and the “reduction in insulin stimulated glucose uptake compared to controls” value is reported as roughly 17%. Further, the “level in rat CSF after peripheral infusion, mean” value in the data set with Sprague-Dawley rats [3] (peripherally infused IGFBP-3) amounted to 7 ng/mL. Moreover, the “peripheral glucose infusion rate” value in the data set on Sprague-Dawley rats [2] is on record as “decrease”. Also, in the data set on PEPCK mRNA in the liver (end of clamp (Example 1)), the “PEPCK mRNA in the liver, ratio to GAPDH” value was determined as 3.2 ±0.3.
